Source: patent US12371436B2, “Substituted benzodiazoliums as ENaC inhibitors” (ENTERPRISE THERAPEUTICS LIMITED, priority 2016, dated 2025)

Experiments:
[1] = Bronchoalveolar lavage (BAL) procedure: compound levels after intratracheal administration; type: in vivo; settings: bronchoalveolar lavage fluid (BAL), other: intratracheal, 0.1 mg/kg, rat, 0.1 mg/mL solution in 5% dextrose, 1 mL/Kg, BAL 6 hours after administration, LC/MS/MS
Protocol: Example 69—Bronchoalveolar Lavage (BAL) Procedure A 0.1 mg/mL solution of ENaC inhibitor in 5% dextrose was administered intratracheally to a rat weighing 225-250 g. A volume of 1 mL/Kg was used. After 6 hours, lungs were lavaged with 3×4 mL of sterile saline. A 1 mL aliquot was subsequently snap frozen. Lungs were excised, weighed and snap frozen. Compound levels in the BAL and lung tissue were subsequently determined using LC/MS/MS bioanalysis.

ENaC = molecular target: T1, ENaC (Homo sapiens, UniProt P37088+P51168+P51170); assay: Short circuit current assay to determine ENaC blocker potency in human bronchial epithelial cells; type: cell-based; settings: 50% inhibition of total amiloride-sensitive ISC, apical addition, read-out: Averages.ENaC IC50 (nM) Avg
T1 construct: host or cells: primary human bronchial epithelial cells (HBECs) differentiated at air-liquid interface
T1 sequence (P37088 1-669): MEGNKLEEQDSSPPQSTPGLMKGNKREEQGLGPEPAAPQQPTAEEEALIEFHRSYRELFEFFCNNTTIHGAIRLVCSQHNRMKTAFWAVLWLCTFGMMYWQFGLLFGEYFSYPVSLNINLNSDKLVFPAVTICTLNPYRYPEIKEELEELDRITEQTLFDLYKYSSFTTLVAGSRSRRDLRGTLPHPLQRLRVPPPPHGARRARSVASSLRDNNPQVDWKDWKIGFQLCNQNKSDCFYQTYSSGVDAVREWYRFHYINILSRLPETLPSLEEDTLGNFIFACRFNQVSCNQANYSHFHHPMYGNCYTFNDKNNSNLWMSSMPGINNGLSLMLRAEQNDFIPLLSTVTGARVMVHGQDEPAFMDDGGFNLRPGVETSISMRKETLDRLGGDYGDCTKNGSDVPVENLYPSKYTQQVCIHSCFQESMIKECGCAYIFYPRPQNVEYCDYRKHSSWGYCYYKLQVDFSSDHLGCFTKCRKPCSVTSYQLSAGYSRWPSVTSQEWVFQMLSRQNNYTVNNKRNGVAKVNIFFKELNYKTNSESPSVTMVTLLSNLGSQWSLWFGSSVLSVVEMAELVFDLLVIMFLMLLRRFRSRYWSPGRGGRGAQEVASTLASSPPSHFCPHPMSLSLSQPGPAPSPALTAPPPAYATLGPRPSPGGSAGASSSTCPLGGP
T1 sequence (P51168 1-640): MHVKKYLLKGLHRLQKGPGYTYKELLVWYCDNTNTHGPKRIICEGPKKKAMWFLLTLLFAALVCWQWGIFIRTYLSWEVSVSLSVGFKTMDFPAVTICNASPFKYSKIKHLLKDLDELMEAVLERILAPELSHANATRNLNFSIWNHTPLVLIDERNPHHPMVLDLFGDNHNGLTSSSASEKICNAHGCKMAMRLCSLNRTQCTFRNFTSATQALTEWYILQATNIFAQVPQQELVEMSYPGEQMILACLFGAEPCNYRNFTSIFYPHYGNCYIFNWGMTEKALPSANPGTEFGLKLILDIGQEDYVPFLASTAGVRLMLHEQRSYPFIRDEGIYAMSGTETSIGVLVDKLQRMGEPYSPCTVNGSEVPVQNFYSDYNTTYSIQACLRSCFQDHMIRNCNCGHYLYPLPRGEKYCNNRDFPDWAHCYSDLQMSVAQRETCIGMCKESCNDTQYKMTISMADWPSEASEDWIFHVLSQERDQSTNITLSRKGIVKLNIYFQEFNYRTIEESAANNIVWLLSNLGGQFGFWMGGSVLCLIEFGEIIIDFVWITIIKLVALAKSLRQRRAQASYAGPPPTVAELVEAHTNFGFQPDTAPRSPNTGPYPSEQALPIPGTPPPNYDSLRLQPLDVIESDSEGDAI
T1 sequence (P51170 1-649): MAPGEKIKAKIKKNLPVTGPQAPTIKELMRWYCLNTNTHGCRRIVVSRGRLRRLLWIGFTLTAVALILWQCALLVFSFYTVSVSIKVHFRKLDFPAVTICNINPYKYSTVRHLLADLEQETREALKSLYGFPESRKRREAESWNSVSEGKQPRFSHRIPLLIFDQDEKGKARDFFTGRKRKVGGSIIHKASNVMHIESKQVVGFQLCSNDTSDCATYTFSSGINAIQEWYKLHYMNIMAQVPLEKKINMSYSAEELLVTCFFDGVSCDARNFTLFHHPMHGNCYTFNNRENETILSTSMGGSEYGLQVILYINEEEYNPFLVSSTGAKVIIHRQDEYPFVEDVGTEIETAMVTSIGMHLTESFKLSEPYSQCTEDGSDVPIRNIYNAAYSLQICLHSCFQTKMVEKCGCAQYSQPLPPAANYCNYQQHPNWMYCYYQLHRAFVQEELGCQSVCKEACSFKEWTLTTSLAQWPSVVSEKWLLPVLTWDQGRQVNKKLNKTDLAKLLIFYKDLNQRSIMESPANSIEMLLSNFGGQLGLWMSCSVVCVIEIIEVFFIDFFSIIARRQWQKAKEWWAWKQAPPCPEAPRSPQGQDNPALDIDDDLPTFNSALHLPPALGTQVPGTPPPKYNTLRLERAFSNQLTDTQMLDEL
In short: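 Primary human bronchial epithelial cells at air-liquid interface (days 14–21) were voltage-clamped at 0 mV in Ussing chambers (Ringer, pH 7.4, 37° C.). Compounds were added apically as cumulative concentrations, then 10 μM amiloride. IC50 was taken as 50% inhibition of amiloride-sensitive ISC.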

Compound | concentration at 6 h [1] [ng/mL] | IC50 (ENaC) [nM]
CCn1c(CNC(=O)c2nc3cc[nH]c3nc2N)[n+](CC)c2ccc(C(=O)N3CC[C@H](N(C[C@H](O)[C@@H](O)[C@H](O)[C@H](O)CO)C[C@H](O)[C@@H](O)[C@H](O)[C@H](O)CO)C3)cc21 [Example 54, 2-[({3-amino-5H-pyrrolo[2,3-b]pyrazin-2-yl}formamido)methyl]-6-[(3S)-3-{bis[(2S,3R,4R,5R)-2,3,4,5,6-pentahydroxyhexyl]amino}pyrrolidine-1-carbonyl]-1,3-diethyl-1H-1,3-benzodiazol-3-ium] | 139 | 49
CCn1c(CNC(=O)c2nc3cc[nH]c3nc2N)[n+](CC)c2ccc(C(=O)N[C@H]3CC[C@H](N(C[C@H](O)[C@@H](O)[C@H](O)[C@H](O)CO)C[C@H](O)[C@@H](O)[C@H](O)[C@H](O)CO)CC3)cc21 [Example 55, 2-[({3-amino-5H-pyrrolo[2,3-b]pyrazin-2-yl}formamido)methyl]-1,3-diethyl-6-{[(1r,4r)-4-{bis[(2S,3R,4R,5R)-2,3,4,5,6-pentahydroxyhexyl]amino}cyclohexyl]carbamoyl}-1H-1,3-benzodiazol-3-ium] | 284 | 78
CCn1c(CNC(=O)c2nc3cc[nH]c3nc2N)[n+](CC)c2ccc(C(=O)N[C@H]3CC[C@@H](N(C[C@H](O)[C@@H](O)[C@H](O)[C@H](O)CO)C[C@H](O)[C@@H](O)[C@H](O)[C@H](O)CO)CC3)cc21 [Example 56, 2-[({3-amino-5H-pyrrolo[2,3-b]pyrazin-2-yl}formamido)methyl]-1,3-diethyl-6-{[(1s,4s)-4-{bis[(2S,3R,4R,5R)-2,3,4,5,6-pentahydroxyhexyl]amino}cyclohexyl]carbamoyl}-1H-1,3-benzodiazol-3-ium] | 283 | 15
CCn1c(CNC(=O)c2nc3cc[nH]c3nc2N)[n+](CC)c2ccc(C(=O)N(C)CCCN(C[C@H](O)[C@@H](O)[C@H](O)[C@H](O)CO)C[C@H](O)[C@@H](O)[C@H](O)[C@H](O)CO)cc21 [Example 57, 2-[({3-amino-5H-pyrrolo[2,3-b]pyrazin-2-yl}formamido)methyl]-6-[(3-{bis[(2S,3R,4R,5R)-2,3,4,5,6-pentahydroxyhexyl]amino}propyl)(methyl)carbamoyl]-1,3-diethyl-1H-1,3-benzodiazol-3-ium] | 283 | 36
CCn1c(CNC(=O)c2nc3cc[nH]c3nc2N)[n+](CC)c2ccc(C(=O)NCCN(C[C@H](O)[C@@H](O)[C@H](O)[C@H](O)CO)C[C@H](O)[C@@H](O)[C@H](O)[C@H](O)CO)cc21 [Example 58, 2-[({3-amino-5H-pyrrolo[2,3-b]pyrazin-2-yl}formamido)methyl]-6-[(2-{bis[(2S,3R,4R,5R)-2,3,4,5,6-pentahydroxyhexyl]amino}ethyl)carbamoyl]-1,3-diethyl-1H-1,3-benzodiazol-3-ium] | 256 | 78
CCn1c(CNC(=O)c2nc3cc[nH]c3nc2N)[n+](CC)c2ccc(C(=O)NCCOCCOCCOCCN(C[C@H](O)[C@@H](O)[C@H](O)[C@H](O)CO)C[C@H](O)[C@@H](O)[C@H](O)[C@H](O)CO)cc21 [Example 59, 2-[({3-amino-5H-pyrrolo[2,3-b]pyrazin-2-yl}formamido)methyl]-1,3-diethyl-5-{[(14S,15R,16R,17R)-14,15,16,17,18-pentahydroxy-12-[(2S,3R,4R,5R)-2,3,4,5,6-pentahydroxyhexyl]-3,6,9-trioxa-12-azaoctadecan-1-yl]carbamoyl}-1H-1,3-benzodiazol-3-ium] | 197 | 171
CCn1c(CNC(=O)c2nc3cc[nH]c3nc2N)[n+](CC)c2ccc(C(=O)NCCc3ccc(-c4ccc(CCN(C[C@H](O)[C@@H](O)[C@H](O)[C@H](O)CO)C[C@H](O)[C@@H](O)[C@H](O)[C@H](O)CO)cc4)cc3)cc21 [Example 60, 2-[({3-amino-5H-pyrrolo[2,3-b]pyrazin-2-yl}formamido)methyl]-6-({2-[4′-(2-{bis[(2S,3R,4R,5R)-2,3,4,5,6-pentahydroxyhexyl]amino}ethyl)-[1,1′-biphenyl]-4-yl]ethyl}carbamoyl)-1,3-diethyl-1H-1,3-benzodiazol-3-ium] | 176 | 22
CCn1c(CNC(=O)c2nc3cc[nH]c3nc2N)[n+](CC)c2ccc(C(=O)NCC[C@H](NCCCN(C[C@H](O)[C@@H](O)[C@H](O)[C@H](O)CO)C[C@H](O)[C@@H](O)[C@H](O)[C@H](O)CO)C(N)=O)cc21 [Example 61, 2-[({3-amino-5H-pyrrolo[2,3-b]pyrazin-2-yl}formamido)methyl]-6-{[(3S)-3-[(3-{bis[(2S,3R,4R,5R)-2,3,4,5,6-pentahydroxyhexyl]amino}propyl)amino]-3-carbamoylpropyl]carbamoyl}-1,3-diethyl-1H-1,3-benzodiazol-3-ium] | 167 | 43
CCn1c(CNC(=O)c2nc3cc[nH]c3nc2N)[n+](CC)c2ccc(C(=O)NCCCCc3ccc(CCC(NCCCN(C[C@H](O)[C@@H](O)[C@H](O)[C@H](O)CO)C[C@H](O)[C@@H](O)[C@H](O)[C@H](O)CO)C(N)=O)cc3)cc21 (stereo partly drawn) [Example 62, 2-[({3-amino-5H-pyrrolo[2,3-b]pyrazin-2-yl}formamido)methyl]-6-{[4-(4-{3-[(3-{bis[(2S,3R,4R,5R)-2,3,4,5,6-pentahydroxyhexyl]amino}propyl)amino]-3-carbamoylpropyl}phenyl)butyl]carbamoyl}-1,3-diethyl-1H-1,3-benzodiazol-3-ium] | 140 | 24
